{"source": "patent US20220305012A1", "about": "“L[…] TREATING SLEEP ISSUES” (EISAI R&D MANAGEMENT CO., LTD., priority 2019, published 2022)", "test_system": "Subjects Having Insomnia Disorder", "test": "Example 1: subjective sleep efficiency (sSE), Sleep Diary", "type": "in vivo, human", "source_text": "As used herein, the term “subjective sleep efficiency”, abbreviated as “sSE”, means the proportion of sTST per subjective time spent in bed, calculated as the interval from the time the subject reports attempting to sleep until the time the subject stopped trying to sleep for the night (operationalized as the time the subject got out of bed for the day), and time spent asleep derived from subjective time spent in bed minus sWASO. As used herein, an “improvement of sleep efficiency in Subjective Sleep Efficiency (sSE)” means an increase in sleep efficiency in Subjective Sleep Efficiency (sSE).\nIn some embodiments, sleep diaries were used to assess sleep parameters reported by subjects (i.e., subjective assessments) including subjective sleep onset latency (sSOL), subjective sleep efficiency (sSE), subjective WASO (sWASO), and subjective total sleep time (sTST). Subjects were instructed to complete the Sleep Diary developed based on the consensus Sleep Diary as described in Carney et al., “The consensus sleep diary: standardizing prospective sleep self-monitoring,” Sleep 2012; 35(2):287-302. In some embodiments, the Sleep Diary was used to assess the subject's global perception of quality of sleep on the previous night with the following question: “How would you rate the quality of your sleep last night?” Subjects rated the quality of their sleep on a scale from 1 to 9, with 1 being extremely poor and 9 being extremely good. In some embodiments, the Sleep Diary was used to assess subjective ratings of morning sleepiness with the following question: “How alert/sleepy do you feel this morning?” Subjects rated their sleepiness/alertness level on a Likert scale from 1 to 9, with 1 being extremely sleepy and 9 being extremely alert.\nsSE—subjective sleep efficiency: proportion of sTST per subjective time spent in bed, calculated as the interval from the time the subject reports attempting to sleep until the time the subject stopped trying to sleep for the night (operationalized as the time the subject got out of bed for the day), and time spent asleep derived from subjective time in bed minus sWASO.\nSubjects were randomized in a double-blind manner and received either placebo, 5 mg of lemborexant, or 10 mg of lemborexant (approximately 1:1:1 randomization). All subjects underwent routine safety monitoring through the study, including assessments of treatment-emergent adverse events, 12-lead electrocardiograms, vital signs, weight, and clinical hematology and blood chemistry labs. Suicidality was assessed using the eC-SSRS.\nTreatment period 1 began with the first dose of randomized study medication (placebo, 5 mg of lemborexant, or 10 mg of lemborexant). Subjects completed sleep diaries daily in the morning, within one hour of waketime. The subjects were assessed by a clinician one month, two months, three months, and six months after initiation of Treatment period 1. The following assessments were conducted:\nThis study had two key secondary endpoints. The first key secondary endpoint was the mean change from study baseline in subjective sleep efficiency at month 6. The second key secondary endpoint was the mean change from study baseline of subjective wake after sleep onset at month 6."}
{"smiles": "Cc1ncc(OC[C@@]2(c3cccc(F)c3)C[C@H]2C(=O)Nc2ccc(F)cn2)c(C)n1", "note": "[Lemborexant, (1R,2S)-2-(((2,4-dimethylpyrimidin-5-yl)oxy)methyl)-2-(3-fluorophenyl)-N-(5-fluoropyridin-2-yl)cyclopropanecarboxamide]", "values": [{"measurement": "subjective sleep efficiency compared with placebo", "setting": "5 mg and 10 mg, at the equivalent timepoint (Table 3)", "result": "greater increase in subjective sleep efficiency than subjects treated with placebo"}, {"measurement": "sSE, Mean", "setting": "5 mg, First 7 Nights", "result": 69.97, "unit": "%"}, {"measurement": "sSE, Median", "setting": "5 mg, First 7 Nights", "result": 74.62, "unit": "%"}, {"measurement": "sSE, Mean", "setting": "5 mg, Month 1", "result": 71.56, "unit": "%"}, {"measurement": "sSE, Median", "setting": "5 mg, Month 1", "result": 76.35, "unit": "%"}, {"measurement": "sSE, Mean", "setting": "5 mg, Month 3", "result": 77.29, "unit": "%"}, {"measurement": "sSE, Median", "setting": "5 mg, Month 3", "result": 81.32, "unit": "%"}, {"measurement": "sSE, Mean", "setting": "5 mg, Month 6", "result": 78.55, "unit": "%"}, {"measurement": "sSE, Median", "setting": "5 mg, Month 6", "result": 82.02, "unit": "%"}, {"measurement": "sSE, Mean", "setting": "5 mg, Study Baseline", "result": 63.14, "unit": "%"}, {"measurement": "sSE, Median", "setting": "5 mg, Study Baseline", "result": 67.00, "unit": "%"}, {"measurement": "sSE Change from Study Baseline, Mean", "setting": "5 mg, after 1 Month", "result": 7.87, "unit": "%"}, {"measurement": "sSE Change from Study Baseline, Median", "setting": "5 mg, after 1 Month", "result": 6.75, "unit": "%"}, {"measurement": "sSE Change from Study Baseline, Mean", "setting": "5 mg, after 3 Months", "result": 13.03, "unit": "%"}, {"measurement": "sSE Change from Study Baseline, Median", "setting": "5 mg, after 3 Months", "result": 11.63, "unit": "%"}, {"measurement": "sSE Change from Study Baseline, Mean", "setting": "5 mg, after 6 Months", "result": 15.34, "unit": "%"}, {"measurement": "sSE Change from Study Baseline, Median", "setting": "5 mg, after 6 Months", "result": 13.33, "unit": "%"}, {"measurement": "sSE Change from Study Baseline, Mean", "setting": "5 mg, after 7 Nights", "result": 6.61, "unit": "%"}, {"measurement": "sSE Change from Study Baseline, Median", "setting": "5 mg, after 7 Nights", "result": 5.45, "unit": "%"}, {"measurement": "sSE LSM treatment difference: Lemborexant-Placebo", "setting": "5 mg, change from Study Baseline after 1 Month", "result": 2.227, "unit": "%"}, {"measurement": "sSE LSM treatment difference: Lemborexant-Placebo", "setting": "5 mg, change from Study Baseline after 3 Months", "result": 4.222, "unit": "%"}, {"measurement": "sSE LSM treatment difference: Lemborexant-Placebo", "setting": "5 mg, change from Study Baseline after 6 Months", "result": 4.549, "unit": "%"}, {"measurement": "sSE LSM treatment difference: Lemborexant-Placebo", "setting": "5 mg, change from Study Baseline after 7 Nights", "result": 4.299, "unit": "%"}, {"measurement": "sSE, Mean", "setting": "10 mg, First 7 Nights", "result": 69.96, "unit": "%"}, {"measurement": "sSE, Median", "setting": "10 mg, First 7 Nights", "result": 71.85, "unit": "%"}, {"measurement": "sSE, Mean", "setting": "10 mg, Month 1", "result": 71.04, "unit": "%"}, {"measurement": "sSE, Median", "setting": "10 mg, Month 1", "result": 74.70, "unit": "%"}, {"measurement": "sSE, Mean", "setting": "10 mg, Month 3", "result": 75.15, "unit": "%"}, {"measurement": "sSE, Median", "setting": "10 mg, Month 3", "result": 78.30, "unit": "%"}, {"measurement": "sSE, Mean", "setting": "10 mg, Month 6", "result": 76.53, "unit": "%"}, {"measurement": "sSE, Median", "setting": "10 mg, Month 6", "result": 80.22, "unit": "%"}, {"measurement": "sSE, Mean", "setting": "10 mg, Study Baseline", "result": 62.03, "unit": "%"}, {"measurement": "sSE, Median", "setting": "10 mg, Study Baseline", "result": 65.05, "unit": "%"}, {"measurement": "sSE Change from Study Baseline, Mean", "setting": "10 mg, after 1 Month", "result": 9.92, "unit": "%"}, {"measurement": "sSE Change from Study Baseline, Median", "setting": "10 mg, after 1 Month", "result": 9.00, "unit": "%"}, {"measurement": "sSE Change from Study Baseline, Mean", "setting": "10 mg, after 3 Months", "result": 13.61, "unit": "%"}, {"measurement": "sSE Change from Study Baseline, Median", "setting": "10 mg, after 3 Months", "result": 12.62, "unit": "%"}, {"measurement": "sSE Change from Study Baseline, Mean", "setting": "10 mg, after 6 Months", "result": 15.55, "unit": "%"}, {"measurement": "sSE Change from Study Baseline, Median", "setting": "10 mg, after 6 Months", "result": 13.91, "unit": "%"}, {"measurement": "sSE Change from Study Baseline, Mean", "setting": "10 mg, after 7 Nights", "result": 8.27, "unit": "%"}, {"measurement": "sSE Change from Study Baseline, Median", "setting": "10 mg, after 7 Nights", "result": 7.17, "unit": "%"}, {"measurement": "sSE LSM treatment difference: Lemborexant-Placebo", "setting": "10 mg, change from Study Baseline after 1 Month", "result": 3.615, "unit": "%"}, {"measurement": "sSE LSM treatment difference: Lemborexant-Placebo", "setting": "10 mg, change from Study Baseline after 3 Months", "result": 4.361, "unit": "%"}, {"measurement": "sSE LSM treatment difference: Lemborexant-Placebo", "setting": "10 mg, change from Study Baseline after 6 Months", "result": 4.667, "unit": "%"}, {"measurement": "sSE LSM treatment difference: Lemborexant-Placebo", "setting": "10 mg, change from Study Baseline after 7 Nights", "result": 5.793, "unit": "%"}]}
